Article PMC11219871, “Epigenetic-based differentiation therapy for Acute Myeloid Leukemia” (Nature Communications, 2024)
Read-outs that look alike come from different tables or passages of the source.

Legend:
[1] = tested on: HL-60; experiment: RNA-seq; assay type: cell-based, human
Description: (§1) Transcriptomic analyses were performed following low-input 3′ end RNA sequencing approximation for characterization of transcriptional changes in ML-2 and HL-60 samples treated with CM-444 and CM-1758.
(§2) Low-input 3′ end RNA-seq was performed as previously described[53],[54] with minor modifications. Briefly, RNA from 0.1 ×10^6 cells from each experimental condition was purified using a Dynabeads mRNA DIRECT Purification Kit (Thermo Fisher Scientific). For barcoded cDNA generation, polyadenylated RNA was retrotranscribed using an Affinity Script cDNA Synthesis Kit (Agilent Technologies), and barcoded primers also harboring T7 promoter and a partial Read2 sequence for illumine sequencing (CGATTGAGGCCGGTAATACGACTCACTATAGGGGGCGACGTGTGCTCTTCCGATCTXXXXXXNNNNTTTTTTTTTTTTTTTTTTTT, where XXXXXX is the cell barcode and NNN is a unique molecular identifier or UMI, which represents the same initial RNA molecule for future quantification). At this point, the samples were pooled (≤6 samples per pool) at equimolar ratios assessed by q-PCR.
(§3) The samples were then treated with Exonuclease I (Thermo Fisher Scientific following a 1.2x positive SPRI-selection. Second-strand cDNA synthesis was then performed using a NEBNext Ultra II Directional RNA Second-Strand Synthesis Module (New England Biolabs) for 2 h at 16 °C, followed by a 1.4x positive solid-phase reverse immobilization (SPRI) cleanup. The samples were linearly amplified by T7 in vitro transcription using a T7 RNA Polymerase (New England Biolabs) for 16 h at 37 °C. After DNAse treatment (TURBO DNAse I, Thermo Fisher Scientific) for 15 min at 37 °C to remove dsDNA, samples were cleaned with a positive 1.2x SPRI-selection. RNA size, quality, and concentration were determined by analysis with a Qubit Fluorometer (Termo Fisher Scientific) and TapeStation (Agilent 4200 TapeSation System, Agilent Technologies). If necessary, RNA was fragmented in 200- to 300-bp fragments using Zn2+divalent cations followed by a 2x positive SPRI cleanup. Fragmented RNA was dephosphorylated using FastAP Thermosensitive Alkaline Phosphatase (Thermo Fisher Scientific) for 10 min at 37 °C to enhance RNA ligation yield. In this step, a partial Read1 ([…]) sequence for illumine sequencing was ligated to the 3′ end of the fragmented RNA using T4 RNA Ligase I (New England Biolabs). After a 1.5x positive SPRI cleanup, the RNA product was retrotranscribed using an Affinity Script cDNA Synthesis Kit (Agilent Technologies) and a specific retrotranscription primer ([…]). The library was then purified by 1.5x positive SPRI cleanup, and the yield of the previous steps was determined by q-PCR. Finally, PCR using KAPA HiFi HotStar Ready Mix (Kapa Biosystems) was performed for second-strand cDNA synthesis, illumine primers addition (Read1-P5: […] and Read2-P7: […]) and library amplification using the recommended cycle numbers to minimize over-amplification. The product was purified by a 0.7x positive SPRI cleanup. The quality of the final library was determined by q-PCR (based on the threshold cycle, or Ct, obtained for GAPDH (Fw: […], Rv: […]) or GUSB (Fw: […], Rv: […]) housekeeping genes calibrated per individual set of samples, Qubit Fluorometer (Thermo Fisher Scientific) and TapeStation (Agilent 4200 TapeStation System, Agilent Technologies). All libraries were pooled at equimolar ratios and sequenced on a NextSeq500 (Illumina) using 60 bp single-end reads at a minimum sequence depth of 10 million reads per sample.
(§4) Raw reads were demultiplexed using bcl2fastq2 Conversion Software v2.19 (Illumina) to convert base call (BCL) files into FastQ files. The quality control of FastQ files was performed using FastQC (Bioinformatics Babraham Institute). Sequencing reads were aligned to hg19 human reference using Bowtie 2 (Johns Hopkins University) and quantified using quant3p script (github.com/ctlab/quant3p). […]

[2] = tested on: ML-2; experiment: RNA-seq; assay type: cell-based, human
Description: as §1, §2, §3, §4

[3] = HL-60, 25% GI50, 12 h, log2FC +/-1
[4] = ML-2, 25% GI50, 12 h, log2FC +/-1

`COc1cc2nc(-c3ccc(C)o3)cc(NCC3CCN(c4ncc(C(=O)NO)cn4)CC3)c2cc1OC` [CM-444, 2-[4-[[[6,7-dimethoxy-2-(5-methyl-2-furyl)-4-quinolyl]amino]methyl]-1-piperidyl]pyrimidine-5-carbohydroxamic acid] was tested, and the “deregulated genes (RNA-seq)” value [1] was 227, the “down-regulated genes (RNA-seq)” value [1] was 39 and the “up-regulated genes (RNA-seq)” value [1] was 188. For the same compound, the “deregulated genes (RNA-seq)” value [1, 3] was 136, the “down-regulated genes (RNA-seq)” value [1, 3] was 3 and the “up-regulated genes (RNA-seq)” value [1, 3] was 133. For the same compound, the “ABI1 Log2FC” value ([1]; HL-60, RNA-Seq) was -0.1754, the “CBFB Log2FC” value ([1]; HL-60, RNA-Seq) was -0.0298 and the “CCR2 Log2FC” value ([1]; HL-60, RNA-Seq) was 0.967. For the same compound, the “CD44 Log2FC” value ([1]; HL-60, RNA-Seq) was -0.2341, the “CDK6 Log2FC” value ([1]; HL-60, RNA-Seq) was 0.2817 and the “CEBPB Log2FC” value ([1]; HL-60, RNA-Seq) was -0.1067. The “CSF3R Log2FC” value ([1]; HL-60, RNA-Seq) was 0.0126, the “CTNNBIP1 Log2FC” value ([1]; HL-60, RNA-Seq) was 0.7431 and the “ELANE Log2FC” value ([1]; HL-60, RNA-Seq) was -2.007. For the same compound, the “EP300 Log2FC” value ([1]; HL-60, RNA-Seq) was -0.2558, the “FLI1 Log2FC” value ([1]; HL-60, RNA-Seq) was -0.04836 and the “FUT4 Log2FC” value ([1]; HL-60, RNA-Seq) was -0.2495. The “GATA2 Log2FC” value ([1]; HL-60, RNA-Seq) was -0.2076, the “HCLS1 Log2FC” value ([1]; HL-60, RNA-Seq) was -0.2476 and the “ITGA4 Log2FC” value ([1]; HL-60, RNA-Seq) was -0.309. The “ITGAM Log2FC” value ([1]; HL-60, RNA-Seq) was 0.9545, the “ITGB1 Log2FC” value ([1]; HL-60, RNA-Seq) was 0.4474 and the “ITGB2 Log2FC” value ([1]; HL-60, RNA-Seq) was -0.1397. The “JUN Log2FC” value ([1]; HL-60, RNA-Seq) was 0.8212, the “MPO Log2FC” value ([1]; HL-60, RNA-Seq) was -0.2249 and the “MYC Log2FC” value ([1]; HL-60, RNA-Seq) was -0.2011. For the same compound, the “NFE2 Log2FC” value ([1]; HL-60, RNA-Seq) was -0.621, the “PIR Log2FC” value ([1]; HL-60, RNA-Seq) was 0.9082 and the “RUNX1 Log2FC” value ([1]; HL-60, RNA-Seq) was -0.1954. The “SOX4 Log2FC” value ([1]; HL-60, RNA-Seq) was 0.2596, the “SPI1 Log2FC” value ([1]; HL-60, RNA-Seq) was -0.5566 and the “TESC Log2FC” value ([1]; HL-60, RNA-Seq) was 0.05581. The “TRIB1 Log2FC” value ([1]; HL-60, RNA-Seq) was 0.02008, the “ZBTB46 Log2FC” value ([1]; HL-60, RNA-Seq) was 0.2361 and the “ZFP36L1 Log2FC” value ([1]; HL-60, RNA-Seq) was 0.9631. For the same compound, the “deregulated genes (RNA-seq)” value [2] was 558, the “down-regulated genes (RNA-seq)” value [2] was 88 and the “up-regulated genes (RNA-seq)” value [2] was 470. The “deregulated genes (RNA-seq)” value [2, 4] was 460, the “down-regulated genes (RNA-seq)” value [2, 4] was 44 and the “up-regulated genes (RNA-seq)” value [2, 4] was 416. The “ABI1 Log2FC” value ([2]; ML-2, RNA-Seq) was 0.61, the “CBFB Log2FC” value ([2]; ML-2, RNA-Seq) was 0.4078 and the “CCR2 Log2FC” value ([2]; ML-2, RNA-Seq) was 0.3405. The “CD44 Log2FC” value ([2]; ML-2, RNA-Seq) was 0.2468, the “CDK6 Log2FC” value ([2]; ML-2, RNA-Seq) was -0.3705 and the “CEBPB Log2FC” value ([2]; ML-2, RNA-Seq) was 0.009186. For the same compound, the “CSF3R Log2FC” value ([2]; ML-2, RNA-Seq) was -0.2226, the “CTNNBIP1 Log2FC” value ([2]; ML-2, RNA-Seq) was 0.1064 and the “ELANE Log2FC” value ([2]; ML-2, RNA-Seq) was -0.8925. For the same compound, the “EP300 Log2FC” value ([2]; ML-2, RNA-Seq) was 0.282, the “FLI1 Log2FC” value ([2]; ML-2, RNA-Seq) was 0.279 and the “FUT4 Log2FC” value ([2]; ML-2, RNA-Seq) was -0.09706. The “GATA2 Log2FC” value ([2]; ML-2, RNA-Seq) was 1.078, the “HCLS1 Log2FC” value ([2]; ML-2, RNA-Seq) was 0.03361 and the “ITGA4 Log2FC” value ([2]; ML-2, RNA-Seq) was -0.1245. For the same compound, the “ITGAM Log2FC” value ([2]; ML-2, RNA-Seq) was 1.391, the “ITGB1 Log2FC” value ([2]; ML-2, RNA-Seq) was 0.4551 and the “ITGB2 Log2FC” value ([2]; ML-2, RNA-Seq) was -0.139. The “JUN Log2FC” value ([2]; ML-2, RNA-Seq) was 1.102, the “MPO Log2FC” value ([2]; ML-2, RNA-Seq) was -1.303 and the “MYC Log2FC” value ([2]; ML-2, RNA-Seq) was -0.4866. For the same compound, the “NFE2 Log2FC” value ([2]; ML-2, RNA-Seq) was 0.3613, the “PIR Log2FC” value ([2]; ML-2, RNA-Seq) was 1.319 and the “RUNX1 Log2FC” value ([2]; ML-2, RNA-Seq) was -0.08636. The “SOX4 Log2FC” value ([2]; ML-2, RNA-Seq) was 0.2683, the “SPI1 Log2FC” value ([2]; ML-2, RNA-Seq) was 0.1755 and the “TESC Log2FC” value ([2]; ML-2, RNA-Seq) was 0.4308. For the same compound, the “TRIB1 Log2FC” value ([2]; ML-2, RNA-Seq) was -0.2715, the “ZBTB46 Log2FC” value ([2]; ML-2, RNA-Seq) was -0.2139 and the “ZFP36L1 Log2FC” value ([2]; ML-2, RNA-Seq) was 2.504.
